Measured values published in the supplement of paper PMC11451515.

Test system: P12-Ichikawa
Assay: cell viability relative to DMSO control; higher = less cytotoxic
Settings: 48 h
Method in brief: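 Cells were incubated for 48 h at 37°C before CellTiter-Glo One luminescence was read. The cells were NOMO1 or SEM (500 cells/well) or P12-Ichikawa (1000 cells/well) leukemia cells, adapted for at least four passages in each medium and seeded in 1536-well plates (5 μl). Dosing used library compounds in DMSO applied by pin over 11 threefold points, 47 μM to 0.79 nM. Viability is the per-plate percentage of DMSO wells, with cell-free wells as background.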

[1] = HPLM + 10% dialyzed FBS, 0.000781 µM
[2] = HPLM + 10% dialyzed FBS, 0.00234 µM
[3] = HPLM + 10% dialyzed FBS, 0.00702 µM
[4] = HPLM + 10% dialyzed FBS, 0.0211 µM
[5] = HPLM + 10% dialyzed FBS, 0.0632 µM
[6] = HPLM + 10% dialyzed FBS, 0.19 µM
[7] = HPLM + 10% dialyzed FBS, 0.569 µM
[8] = HPLM + 10% dialyzed FBS, 1.71 µM
[9] = HPLM + 10% dialyzed FBS, 5.12 µM
[10] = HPLM + 10% dialyzed FBS, 15.4 µM
[11] = HPLM + 10% dialyzed FBS, 46.1 µM
[12] = RPMI 5 mM glucose + 10% FBS, 0.000781 µM
[13] = RPMI 5 mM glucose + 10% FBS, 0.00234 µM
[14] = RPMI 5 mM glucose + 10% FBS, 0.00702 µM
[15] = RPMI 5 mM glucose + 10% FBS, 0.0211 µM
[16] = RPMI 5 mM glucose + 10% FBS, 0.0632 µM
[17] = RPMI 5 mM glucose + 10% FBS, 0.19 µM
[18] = RPMI 5 mM glucose + 10% FBS, 0.569 µM
[19] = RPMI 5 mM glucose + 10% FBS, 1.71 µM
[20] = RPMI 5 mM glucose + 10% FBS, 5.12 µM
[21] = RPMI 5 mM glucose + 10% FBS, 15.4 µM
[22] = RPMI 5 mM glucose + 10% FBS, 46.1 µM
[23] = RPMI 5 mM glucose + 10% dialyzed FBS, 0.000781 µM
[24] = RPMI 5 mM glucose + 10% dialyzed FBS, 0.00234 µM
[25] = RPMI 5 mM glucose + 10% dialyzed FBS, 0.00702 µM
[26] = RPMI 5 mM glucose + 10% dialyzed FBS, 0.0211 µM
[27] = RPMI 5 mM glucose + 10% dialyzed FBS, 0.0632 µM
[28] = RPMI 5 mM glucose + 10% dialyzed FBS, 0.19 µM
[29] = RPMI 5 mM glucose + 10% dialyzed FBS, 0.569 µM
[30] = RPMI 5 mM glucose + 10% dialyzed FBS, 1.71 µM
[31] = RPMI 5 mM glucose + 10% dialyzed FBS, 5.12 µM
[32] = RPMI 5 mM glucose + 10% dialyzed FBS, 15.4 µM
[33] = RPMI 5 mM glucose + 10% dialyzed FBS, 46.1 µM

Structure (SMILES) | cell viability [1] | cell viability [2] | cell viability [3] | cell viability [4] | cell viability [5] | cell viability [6] | cell viability [7] | cell viability [8] | cell viability [9] | cell viability [10] | cell viability [11] | cell viability [12] | cell viability [13] | cell viability [14] | cell viability [15] | cell viability [16] | cell viability [17] | cell viability [18] | cell viability [19] | cell viability [20] | cell viability [21] | cell viability [22] | cell viability [23] | cell viability [24] | cell viability [25] | cell viability [26] | cell viability [27] | cell viability [28] | cell viability [29] | cell viability [30] | cell viability [31] | cell viability [32] | cell viability [33]
CCN(CCO)CCCC(C)Nc1ccnc2cc(Cl)ccc12 (configuration not stated) | 99.5% | 114% | 114% | 111% | 110% | 105% | 75.6% | 112% | 57.5% | 14.7% | 9.45% | 102% | 110% | 110% | 103% | 108% | 106% | 74.6% | 105% | 66.2% | 27.3% | 10.7% | 102% | 108% | 106% | 117% | 112% | 103% | 90.7% | 102% | 3.75% | 56.4% | 15.4%
CC[C@@H](C)[C@H](NC(=O)[C@H](CC1CCCCC1)NC(=O)c1ccno1)C(=O)N1CCC2(CCc3ccccc32)CC1 | 94% | 89.4% | 92.7% | 88.9% | 95% | 94.1% | 75.8% | 80.8% | 89.2% | 78.9% | 83.3% | 79% | 81.5% | 101% | 88.7% | 89.8% | 85.9% | 64.5% | 71.9% | 99.8% | 70.1% | 74.6% | 84.3% | 89.3% | 83.2% | 81.4% | 77.1% | 82.2% | 79.6% | 82% | 84.6% | 76% | 77%
COC1=CC2=C(C=C1CC3=C(F)C(=CC=C3)Cl)C(=O)\C(=C/N2[C@H](CO)C(C)C)C(O)=O | 125% | 123% | 122% | 107% | 121% | 119% | 114% | 115% | 110% | 95.9% | 13.4% | – | – | – | – | – | – | – | – | – | – | – | 116% | 125% | 124% | 117% | 125% | 121% | 119% | 112% | 103% | 67.3% | 10%
OCCN1CCN(CCCN2c3ccccc3Sc3ccc(C(F)(F)F)cc32)CC1 | 95.4% | 98.3% | 103% | 109% | 110% | 108% | 73.3% | 113% | 74.2% | 18.2% | 8.87% | 107% | 108% | 109% | 123% | 109% | 114% | 87.8% | 107% | 74.2% | 36.6% | 9.41% | 99.3% | 99.7% | 111% | 110% | 107% | 107% | 96.4% | 104% | 78.7% | 59.8% | 12.7%
O=C1N\N=C(\C[C@@H]2CCN(C2)C(=O)C3CC3)N1C4=CC=C(C=C4)C5=CC=C6OC=CC6=C5 | 79.6% | 82% | 83.2% | 86.1% | 91.9% | 81.5% | 81% | 88.7% | 83.7% | 83.2% | 80.3% | 76.3% | 77% | 77.1% | 78.3% | 87.6% | 75.5% | 73.6% | 78.8% | 82.1% | 78.2% | 83.9% | 83.3% | 79.8% | 81.6% | 84% | 93.6% | 84.5% | 91.1% | 80.6% | 82.9% | 86.3% | 85.7%
COc1cc([C@@H]2c3cc4c(cc3[C@H](O)[C@H]3COC(=O)[C@H]23)OCO4)cc(OC)c1OC | 87.8% | 39.1% | 12.4% | 7.37% | 7% | 8.5% | 7.63% | 8.21% | 6.81% | 5.69% | 2.44% | 84.9% | 45.4% | 15.6% | 9.29% | 7.32% | 7.35% | 6.22% | 5.7% | 5.67% | 4.24% | 1.48% | 84% | 41.4% | 19.7% | 11.7% | 6.34% | 8.83% | 7.96% | 7.78% | 7.21% | 5.34% | 2.45%
CNC(=O)c1cc(Oc2ccc(NC(=O)Nc3ccc(Cl)c(C(F)(F)F)c3)c(F)c2)ccn1 | 86.4% | 89.8% | 93.8% | 91.3% | 92% | 95.4% | 87.8% | 91% | 88.3% | 81.4% | 67.7% | 85.4% | 92.6% | 87.8% | 97.8% | 86.2% | 95.6% | 94.2% | 83.6% | 87.1% | 86.8% | 65.5% | 91.7% | 89.9% | 90.5% | 98.6% | 94.1% | 91.5% | 84.9% | 90.3% | 84.7% | 89.1% | 73.5%
C[C@]12CCC(=O)C(O)=C1CC[C@@H]1[C@@H]2CC[C@]2(C)C(=O)CC[C@@H]12 | 122% | 125% | 122% | 119% | 119% | 122% | 128% | 117% | 120% | 111% | 104% | – | – | – | – | – | – | – | – | – | – | – | 112% | 124% | 132% | 121% | 121% | 115% | 130% | 126% | 101% | 108% | 104%
